Reference: patent US8080529B2, “Macrolides with anti-inflammatory activity” (Glaxo Group Limited, priority 2005, dated 2011)
Where two headings read alike, the source gives them in different places.

Experiments:
Hep G2 = assay: Cytotoxicity assay (MTT), Hep G2 cell line; type: cell-based; conditions: 24 h
Procedure: (§1) To determine whether the anti-inflammatory activity of the test compounds was due to observed inhibition of cytokine production and inhibition of proliferation in vitro, and was not a consequence of cellular cytotoxicity, measurement of succinate dehydrogenase activity in living cells was performed. Cells were cultured for 24 h in RPM medium as described above at 37° C. the presence of the test compounds at concentrations of 50 μM and 12.5 μM. MTT [3-(4,5-dimethylthiazole-2-yl)-2,5-diphenyl tetrazolium bromide] (Promega, USA), a detection reagent, was then added and the cultures were incubated for 0.5-2 h. The amount of MTT-Formazan produced was determined using a spectrophotometer at 490 nm (Mosmann, J. Immunol. Methods, 1983, 65: 55-63).
(§2) The percentage of inhibition of cell growth was calculated using the following formula: % inhibition of cell growth=[…].

[1] = system: human peripheral blood mononuclear cells (PBMC); assay: Effects on human T-cell proliferation in vitro (3H-thymidine incorporation); type: cell-based; conditions: Homo sapiens, PBMC, read-out: Percentage of inhibition of proliferation of stimulated PBMC
Procedure: The influence of the various test compounds at two different concentrations (50 μM and 10 μM) on cell proliferation of human peripheral blood mononuclear cells (PBMC) was assessed. […] The cells were pulsed with 1 μCi of ^3H-thymidine (Amersham, USA) per well during the last 18 h of the culture, and were harvested on the 96-well filter (Packard Bioscience, USA) using a multiple cell harvester (Packard, USA). The incorporation of ^3H-thymidine in activated cells were measured using TopCount NXT (Packard, USA). […] The positive control refers to LPS-, PMA- or zymosan-stimulated samples that were not treated with test compounds.

TNF-α [2] = assay: Lipopolysaccharide induced TNF-α production in Balb/cJ mice; type: in vivo; conditions: Mus musculus, ip, 1.5 h, read-out: % inhibition of TNF-α production (plasma)
Procedure: Male Balb/cJ mice (Iffa Credo, France) weighing 25-33 g were randomly grouped (n=7 in test group, 7 in positive control group, 4 in negative control group). Test compounds, as well as vehicle [0.125% carboxymethyl-cellulose (Sigma, USA)], were administered to the mice intraperitoneally. Test compounds were administered at a dose of 10 mg/kg of body weight, in a volume of 10 mL/kg of body weight. Thirty minutes later, a sterile solution of lipopolysaccharide (LPS) (Sigma, USA) in saline was intraperitoneally administered at a concentration and volume of 25 μg/0.2 mL/mouse to each animal, except those in negative control. Ninety minutes following administration, all animals were sacrificed by puncturing a. carotis communis. The plasma concentration of TNF-α was determined by sandwich ELISA, using capture and detection antibodies (R&D, USA) according to manufacturer's recommendations. Results are presented in the following table as percent of inhibition of TNF-α production in comparison to the positive control (stimulated, but untreated animals).

A549 = assay: Cytotoxicity assay (MTT), A549 cell line; type: cell-based; conditions: 24 h
Procedure: as §1, §2

TNF-α [3] = assay: Inhibition of TNF-α production by stimulated human peripheral blood leukocytes in vitro; type: cell-based; conditions: Homo sapiens, Leukocyte, read-out: Percentage of inhibition of TNF-α production
Procedure, shortened: (§3)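 Sandwich ELISA of supernatant cytokines; % inhibition = (1 − sample/stimulated untreated control)×100. Dextran-isolated human PBL were pretreated 2 h with 10 or 50 μM compound, then challenged overnight with LPS (2 μg/mL), PMA (1 μg/mL) or zymosan (120 μg/mL).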

IL-6 = assay: Inhibition of IL-6 production by stimulated human peripheral blood leukocytes in vitro; type: cell-based; conditions: Homo sapiens, Leukocyte, read-out: Percentage of inhibition of IL-6 production
Procedure, shortened: as §3

IL-1α = assay: Inhibition of IL-1 production by stimulated human peripheral blood leukocytes in vitro; type: cell-based; conditions: Homo sapiens, Leukocyte, read-out: Percentage of inhibition of IL-1α production
IL-8 = assay: Inhibition of IL-8 production by stimulated human peripheral blood leukocytes in vitro; type: cell-based; conditions: Homo sapiens, Leukocyte, read-out: Percentage of inhibition of IL-8 production
Procedure, shortened: as §3

Row | SMILES | Percentage of inhibition of cell growth (Hep G2; 12.5 μM) [%] | Percentage of inhibition of cell growth (Hep G2; 50 μM) [%] | Percentage of inhibition of cell growth (A549; 12.5 μM) [%] | Percentage of inhibition of cell growth (A549; 50 μM) [%] | inhibition at 10 µM (TNF-α [3]; LPS-stimulated PBL) [%] | inhibition at 10 µM (TNF-α [3]; PMA-stimulated PBL) [%] | inhibition at 10 µM (TNF-α [3]; zymosan-stimulated PBL) [%] | inhibition at 50 µM (TNF-α [3]; LPS-stimulated PBL) [%] | inhibition at 50 µM (TNF-α [3]; PMA-stimulated PBL) [%] | inhibition at 50 µM (TNF-α [3]; zymosan-stimulated PBL) [%] | inhibition at 10 µM (IL-6; LPS-stimulated PBL) [%] | inhibition at 10 µM (IL-6; PMA-stimulated PBL) [%] | inhibition at 10 µM (IL-6; zymosan-stimulated PBL) [%] | inhibition at 50 µM (IL-6; LPS-stimulated PBL) [%] | inhibition at 50 µM (IL-6; PMA-stimulated PBL) [%] | inhibition at 50 µM (IL-6; zymosan-stimulated PBL) [%] | inhibition at 10 µM (IL-1α; LPS-stimulated PBL) [%] | inhibition at 10 µM (IL-1α; PMA-stimulated PBL) [%] | inhibition at 10 µM (IL-1α; zymosan-stimulated PBL) [%] | inhibition at 50 µM (IL-1α; LPS-stimulated PBL) [%] | further results
1 | CC[C@H]1OC(=O)[C@H](C)[C@@H](O[C@H]2C[C@@](C)(OC)[C@@H](OC(=O)CCN(CC)CC)[C@H](C)O2)[C@H](C)[C@@H](O[C@@H]2O[C@H](C)C[C@H](N(C)C)[C@H]2O)[C@](C)(O)C[C@@H](C)NC(=O)[C@H](C)[C@@H](O)[C@]1(C)O [Example 2, 4″-O-(3-Diethylamino-propionyl)-8a-aza-8a-homoerythromycin A] | 0 | 1 | 0 | 3 | – | – | – | – | – | – | – | – | – | – | – | – | – | – | – | – | inhibition at 10 µM ([1]; PHA): 35%; inhibition at 50 µM ([1]; PHA): 41%; inhibition at 10 µM ([1]; PMA + iono.): 1%; inhibition at 50 µM ([1]; PMA + iono.): 31%; inhibition in vivo at 10 mg/kg (TNF-α [2]; 10 mg/kg intraperitoneally, 30 min before LPS, 90 min after LPS): 59%
2 | CC[C@H]1OC(=O)[C@H](C)[C@@H](O[C@H]2C[C@@](C)(OC)[C@@H](OC(=O)CCN(CC)CC)[C@H](C)O2)[C@H](C)[C@@H](O[C@@H]2O[C@H](C)C[C@H](N(C)C)[C@H]2O)[C@](C)(OC)C[C@@H](C)C(=O)[C@H](C)[C@H]2N(C)C(=O)O[C@]12C [Example 10, 11,12-(N-Methyl-carbamate)-11,12-dideoxy-4-O-(3-diethylaminopropionyl)-6-O-methyl-erythromycin A] | 0 | 5 | 12 | 6 | 49 | 41 | 14 | 86 | 62 | 72 | 14 | 12 | 19 | 71 | 18 | 39 | 44 | 30 | 48 | 41 | inhibition at 10 µM ([1]; PHA): 71%; inhibition at 50 µM ([1]; PHA): 98%; inhibition at 10 µM ([1]; PMA + iono.): 3%; inhibition at 50 µM ([1]; PMA + iono.): 100%; inhibition at 50 µM (IL-1α; PMA-stimulated PBL): 0%; inhibition at 50 µM (IL-1α; zymosan-stimulated PBL): 49%; inhibition at 10 µM (IL-8; LPS-stimulated PBL): 27%; inhibition at 10 µM (IL-8; PMA-stimulated PBL): 0%; inhibition at 10 µM (IL-8; zymosan-stimulated PBL): 28%; inhibition at 50 µM (IL-8; LPS-stimulated PBL): 52%; inhibition at 50 µM (IL-8; PMA-stimulated PBL): 42%; inhibition at 50 µM (IL-8; zymosan-stimulated PBL): 36%
3 | CC[C@H]1OC(=O)[C@H](C)[C@@H](OC2C[C@@](C)(OC)[C@@H](OC(=O)CCN3CCNCC3)[C@H](C)O2)[C@H](C)[C@@H](OC2O[C@H](C)C[C@H](N(C)C)[C@H]2O)[C@](C)(OC)C[C@@H](C)C(=O)[C@H](C)[C@@H](O)[C@]1(C)O (stereo partly drawn) [Example 50, 4″-O-(3-piperazin-1-yl-propionyl)-6-O-methylerithromycin A] | 0 | 8 | 10 | 10 | 10 | 0 | 36 | 100 | 100 | 98 | 0 | 0 | 52 | 54 | 23 | 96 | 19 | 0 | 81 | 23 | inhibition at 50 µM (IL-1α; PMA-stimulated PBL): 44%; inhibition at 50 µM (IL-1α; zymosan-stimulated PBL): 69%; inhibition at 10 µM (IL-8; LPS-stimulated PBL): 0%; inhibition at 10 µM (IL-8; PMA-stimulated PBL): 0%; inhibition at 10 µM (IL-8; zymosan-stimulated PBL): 0%; inhibition at 50 µM (IL-8; LPS-stimulated PBL): 61%; inhibition at 50 µM (IL-8; PMA-stimulated PBL): 100%; inhibition at 50 µM (IL-8; zymosan-stimulated PBL): 70%
4 | C=CC(=O)OC1[C@H](C)O[C@@H](O[C@H]2[C@H](C)[C@@H](O[C@@H]3O[C@H](C)C[C@H](NC)[C@H]3O)[C@](C)(OC)C[C@@H](C)C(=O)N[C@H](C)[C@@H](O)[C@](C)(O)[C@@H](CC)OC(=O)[C@@H]2C)C[C@@]1(C)OC (stereo partly drawn) [Example 53, 3′-N-Demethyl-4″-O-acryloyl-6-O-methyl-9a-aza-9a-homoerythromycin A] | 0 | 2 | 9 | 12 | 28 | 82 | 64 | 100 | 100 | 100 | 20 | 66 | 68 | 99 | 95 | 100 | 83 | 92 | 92 | 95 | inhibition at 50 µM (IL-1α; PMA-stimulated PBL): 99%; inhibition at 50 µM (IL-1α; zymosan-stimulated PBL): 100%; inhibition at 10 µM (IL-8; LPS-stimulated PBL): 9%; inhibition at 10 µM (IL-8; PMA-stimulated PBL): 30%; inhibition at 10 µM (IL-8; zymosan-stimulated PBL): 19%; inhibition at 50 µM (IL-8; LPS-stimulated PBL): 100%; inhibition at 50 µM (IL-8; PMA-stimulated PBL): 63%; inhibition at 50 µM (IL-8; zymosan-stimulated PBL): 92%
5 | CC[C@H]1OC(=O)[C@H](C)[C@@H](O[C@H]2C[C@@](C)(OC)[C@@H](OCCCN(CC)CC)[C@H](C)O2)[C@H](C)[C@@H](O[C@@H]2O[C@H](C)C[C@H](N(C)C)[C@H]2O)[C@](C)(OC)C[C@@H](C)C(=O)N[C@H](C)[C@@H](O)[C@]1(C)O [Example 73, 4″-O-(3-Diethylaminopropyl)-6-O-methyl-9a-aza-9a-homoerythromycin A] | 0 | 0 | 0 | 0 | – | – | – | – | – | – | – | – | – | – | – | – | – | – | – | – | inhibition in vivo at 10 mg/kg (TNF-α [2]): 90%
